From patent publication US12590063B2, “Phenol derivative” (Sumitomo Pharma Co., Ltd., priority 2020, dated 2026)
pEC50: −log10 of the molar value. Where a name gives a salt, the structure may show the parent alone. Marks after values point to notes of the source that are not given here.

Experiments:
[1] = Evaluation test for metabolic stability to S9; assay type: in vitro ADME; details: liver S9 fraction, 37° C., 15 minutes, final compound concentration 10 nM
Description: Test Example 4: Evaluation Test for Metabolic Stability to S9
The compounds were added to a reaction solution in which the liver S9 fraction was diluted with phosphate buffer, and incubation was initiated at 37° C. (final compound concentration 10 nM, final volume 300 μL). After incubation for 15 minutes, the reaction was stopped by adding the reaction solution to acetonitrile, and centrifugation was carried out. After filtering the supernatant through a filter, the amount of compounds was determined using LC/MS/MS. From the amount of compounds obtained, the residual rate 15 minutes after the initiation of the reaction was calculated relative to the amount of compounds before the initiation of the reaction (0 minutes).

[2] = target: T1, Human TRPV1 (Homo sapiens, UniProt Q8NER1); test: Evaluation of agonistic properties using human TRPV1 transiently expressing cells; assay type: cell-based; details: for pEC50: HEK293 cells transiently expressing human TRPV1 and apoaequorin, luminescence signal Rlu (Max-Min), read-out: TRPV1 EC50; for TRPV-1-agonistic activity (in words): evaluation test for TRPV-1-agonistic properties, summary of Tables 3 and 4
T1 construct: the TRPV1 gene (GenBank NP_542435.2) had been inserted; expressed in transfected cells; host or cells: HEK293 cells (cat #CCL-82.2, ATCC), transient transfection with pcDNA3.1
Source text: Test Example 1: Evaluation of Agonistic Properties Using Human TRPV1 Transiently Expressing Cells
(1) Generation of Human TRPV1 Transiently Expressing Cells
Human TRPV1 transiently expressing cells were generated and subjected to culture. Specifically, HEK293 cells (cat #CCL-82.2, ATCC) were used as host cells. Human TRPV1 and apoaequorin were transiently expressed by introducing the mammalian cell expression pcDNA3.1 vector (cat #v790-20, Invitrogen) into which the TRPV1 gene (GenBank NP_542435.2) had been inserted.
The Dulbecco's Modified Eagle's Medium (DMEM) medium (cat #11550-043, Thermo Fisher Scientific) containing 10% inactivated fetal bovine serum (cat #10270-106, Thermo Fisher Scientific) was used as the medium, and the culture was carried out in tissue culture dishes (cat #3020-100, Iwaki). During the culture, cells were collected every 2 to 3 days by treating with PBS containing 10% 2.5 g/1-trypsin/[…] solution, phenol red (cat #32777-44, Nacalai Tesque), and passage culture was carried out.
Three days after the passage, cells were collected with 10% trypsin-PBS treatment at a state of about 80% confluency, suspended in a DMEM medium containing 10% fetal bovine serum to 4000 cells/35 μl/well, and seeded into 384-well plates (cat #353962, FALCON).
The day after seeding, Viviren (cat #E6492, Promega) was added (15 μl/well) to a final concentration of 4.5 μM/HBSS (cat #14065-056, Thermo Fisher Scientific)/90 mM HEPES (cat #17514-15, Nacalai Tesque)/0.1% BSA (cat #01281-84, Nacalai Tesque), and after centrifugation, the samples were allowed to stand at room temperature for 2 hours under light-shielded conditions.
(2) Preparation of Test Compounds
For the test compounds, dimethyl sulfoxide solutions were produced at a concentration 1000 times the final concentration, and from these solutions, solutions at concentration 10 times the final concentration were prepared with Hanks/20 mmol/L HEPES/0.10% BSA (cat #01281-84, Nacalai Tesque).
(3) Evaluation of TRPV1-Agonistic Properties
FDSS7000 (Hamamatsu Photonics K.K.) was used for detection of TRPV1 agonist-stimulated luminescence signals. The test compounds were added to plates to which the cells and luminescent substrates had been added. The luminescence signals (center wavelength: 465 nm) after addition of the test compounds were measured, and the Rlu (Max−Min) was calculated.

[3] = tested on: Crl:CD(SD) rats; test: Evaluation of taste aversion by drinking water; assay type: in vivo, rat; details: two-bottle choice, overnight
Description: Test Example 3: Evaluation of Taste Aversion by Drinking Water
This test is for evaluating the taste aversion of drugs. The test was carried out by, while keeping Crl:CD(SD) rats (8 rats per group, 8 weeks old at the time of arrival) in home cages, adding the test substance solutions to water bottles. Two water bottles per cage were prepared, each filled with vehicle (sterile water containing 0.05% ethanol) and the test substance solution, and kept overnight, and the amount of water consumed during that period was measured. The proportion of water consumed with the test substance was calculated from the total amount of water consumed from the two water bottles, and the evaluation of taste aversion was carried out. It can be evaluated that the larger the proportion of water consumed with the test substance, the smaller the taste aversion and the smaller the stimulatory properties caused by the test substance.

[4] = tested on: normal rats; test: Desensitization of effect of increasing swallowing in normal rats; assay type: in vivo, rat; details: for number of swallows, Average, First time: 1st of five administrations about 5 minutes apart; for number of swallows, Average, Second time: 2nd of five administrations about 5 minutes apart; for number of swallows, Average, Third time: 3rd of five administrations about 5 minutes apart; for number of swallows, Average, Fourth time: 4th of five administrations about 5 minutes apart; for number of swallows, Average, Fifth time: 5th of five administrations about 5 minutes apart
Source text: Test Example 6: Evaluation with Respect to Desensitization of Effect of Increasing Swallowing in Normal Rats
TRPV1 agonists are known to induce TRPV1 desensitization when given at high doses or repeatedly. Using the same method as in Test Example 5, the effect of drugs on normal swallowing function in rats to induce desensitization was investigated. After the induction of anesthesia in Crl:CD(SD) male rats (7 to 8 rats per group, 8 to 9 weeks old, body weight 280 to 310 g: at the time of arrival), the animals were sheared under the jaw with clippers and held in a supine position on a heat pad kept at 37° C. to prevent limb movement. A sonde was inserted into the animals' mouths, and the tip of the sonde was retained in the pharynx. Under this condition, the test substance administration solution was administered at 12 ml/h for 10 seconds using an infusion pump, and the swallowing movements were measured for 30 seconds from the initiation of administration. Thereafter, the same test was performed about 5 minutes later, and the evaluation was repeated for a total of five times. Note that the vehicle used was saline solution containing 1% ethanol and 0.1% Tween 80.

[5] = tested on: normal rats; test: Test for eye stimulatory properties in normal rats; assay type: in vivo, rat; details: rat, in vivo
Description: Test Example 7: Evaluation with Respect to Test for Eye Stimulatory Properties in Normal Rats
It has been reported that TRPV1 agonists have stimulatory properties and that administration of TRPV1 agonist solutions to the eye can induce wiping behavior. The stimulatory properties of the compounds were investigated using normal rats. Crl:CD(SD) male rats (5 rats per group, 8 weeks old, body weight 271 to 320 g) were held unanesthetized and 10 μL was dropped into the right eye using a micropipette.

[6] = tested on: normal rats; test: Evaluation of effect of increasing swallowing in normal rats; assay type: in vivo, rat; details: anesthetized normal rats
Description: Test Example 5: Evaluation of Effect of Increasing Swallowing in Normal Rats
This test is for evaluating the effect of increasing swallowing function of drugs. It has been reported that induction of the swallowing reflex in normal rats using NaCl-containing water suppresses the number of swallows, and the increase in swallowing function was evaluated using a NaCl-containing solvent. After the induction of anesthesia in Crl:CD(SD) male rats (7 to 8 rats per group, 8 to 9 weeks old, body weight 280 to 310 g: at the time of arrival), the animals were sheared under the jaw with clippers and held in a supine position on a heat pad kept at 37° C. to prevent limb movement. A rat sonde was inserted into the animals' mouths, and the tip of the sonde was retained in the pharynx. Under this condition, the test substance administration solution was administered at 12 ml/h for 10 seconds using an infusion pump, and the swallowing movements were measured for 30 seconds from the initiation of administration. Note that the vehicle used was saline solution containing 1% ethanol and 0.1% Tween 80.

T1 sequence (Q8NER1 whole entry): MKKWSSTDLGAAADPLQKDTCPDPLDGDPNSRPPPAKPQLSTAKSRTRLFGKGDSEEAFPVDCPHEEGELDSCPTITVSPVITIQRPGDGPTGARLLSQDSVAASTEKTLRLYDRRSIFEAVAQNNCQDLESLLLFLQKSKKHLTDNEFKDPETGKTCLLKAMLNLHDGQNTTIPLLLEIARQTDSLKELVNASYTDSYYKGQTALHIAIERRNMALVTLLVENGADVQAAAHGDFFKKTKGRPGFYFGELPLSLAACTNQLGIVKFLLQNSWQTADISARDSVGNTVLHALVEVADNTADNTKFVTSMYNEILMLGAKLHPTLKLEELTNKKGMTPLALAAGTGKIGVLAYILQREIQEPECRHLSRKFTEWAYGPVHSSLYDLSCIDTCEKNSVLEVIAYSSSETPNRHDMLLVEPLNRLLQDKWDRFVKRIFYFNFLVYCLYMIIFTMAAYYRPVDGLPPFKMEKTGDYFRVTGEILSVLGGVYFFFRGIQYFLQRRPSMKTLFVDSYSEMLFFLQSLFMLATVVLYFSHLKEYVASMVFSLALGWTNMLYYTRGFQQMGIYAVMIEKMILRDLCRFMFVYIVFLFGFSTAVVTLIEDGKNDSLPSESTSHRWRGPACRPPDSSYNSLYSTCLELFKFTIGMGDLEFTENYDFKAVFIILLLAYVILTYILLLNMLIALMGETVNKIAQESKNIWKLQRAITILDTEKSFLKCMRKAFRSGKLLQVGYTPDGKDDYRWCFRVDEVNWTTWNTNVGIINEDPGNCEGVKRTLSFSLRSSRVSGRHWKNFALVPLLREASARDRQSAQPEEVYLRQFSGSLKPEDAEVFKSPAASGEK

For `COc1cc(CC(=O)Nc2ccnc(-c3cccc(OC(=O)C(C)C)c3)c2)ccc1O` [Example 26, 3-{4-[2-(4-hydroxy-3-methoxyphenyl)acetamido]pyridin-2-yl}phenyl 2-methylpropanoate], the “Residual rate (%)” value [1] was under 1%, the pEC50 [2] was 8.64 and the “TRPV-1-agonistic activity (in words)” value [2] was “stronger TRPV-1-agonistic activity”. For the same compound, the “proportion of water consumed with the test substance (% Vehicle)” value (from here on “proportion of water consumed … (% Vehicle)”) ([3]; 1 μM in drinking water) was 113 % Vehicle, the “proportion of water consumed … (% Vehicle)” value ([3]; 3 μM in drinking water) was 86 % Vehicle and the “proportion of water consumed … (% Vehicle)” value ([3]; 10 μM in drinking water) was 55 % Vehicle.

In the case of `COc1cc(CC(=O)Nc2cccc(-c3cccc(OC(=O)Cc4ccccc4F)c3)c2)ccc1O` [Example 28, 3′-[2-(4-hydroxy-3-methoxyphenyl)acetamido][1,1′-biphenyl]-3-yl (2-fluorophenyl)acetate], the “Residual rate (%)” value [1] was under 1% and the pEC50 [2] was 8.06.

In the case of `COc1cc(CC(=O)Nc2cccc(-c3cccc(OC(=O)CC4CCOCC4)c3)c2)ccc1O` [Example 29, 3′-[2-(4-hydroxy-3-methoxyphenyl)acetamido][1,1′-biphenyl]-3-yl (oxa-4-yl)acetate], the “Residual rate (%)” value [1] was under 1% and the pEC50 [2] was 7.88.

In the case of `COc1cc(CC(=O)Nc2cccc(-c3cccc(OC(=O)CC4CCCCC4)c3)c2)ccc1O` [Example 30, 3′-[2-(4-hydroxy-3-methoxyphenyl)acetamido][1,1′-biphenyl]-3-yl cyclohexylacetate], the “Residual rate (%)” value [1] was under 1% and the pEC50 [2] was 8.14.

In the case of `COc1cc(CC(=O)Nc2ccnc(-c3cccc(OC(=O)CC4CCCCC4)c3)c2)ccc1O` [Example 31, 3-{4-[2-(4-hydroxy-3-methoxyphenyl)acetamido]pyridin-2-yl}phenyl cyclohexylacetate], the “Residual rate (%)” value [1] was under 1% and the pEC50 [2] was 7.83.

With `COc1cc(CC(=O)Nc2cccc(-c3cccc(OC(=O)CC4CCCCC4)c3)n2)ccc1O` [Example 32, 3-{6-[2-(4-hydroxy-3-methoxyphenyl)acetamido]pyridin-2-yl}phenyl cyclohexylacetate] the “Residual rate (%)” value [1] was 2% and the pEC50 [2] was 7.94.

For `COc1cc(CC(=O)Nc2ccnc(-c3cccc(OC(=O)C4CCCCC4)c3)c2)ccc1O` [Example 33, 3-{4-[2-(4-hydroxy-3-methoxyphenyl)acetamido]pyridin-2-yl}phenyl cyclohexanecarboxylate hydrochloride], the “Residual rate (%)” value [1] was under 1% and the pEC50 [2] was 7.90.

For `COc1cc(CC(=O)Nc2cccc(-c3cccc(OC(=O)C4CCCCC4)c3)n2)ccc1O` [Example 34, 3-{6-[2-(4-hydroxy-3-methoxyphenyl)acetamido]pyridin-2-yl}phenyl cyclohexanecarboxylate], the “Residual rate (%)” value [1] was under 1% and the pEC50 [2] was 7.89.

For `COc1cc(CNC(=O)c2cccc(-c3cccc(OC(=O)C(C)C)c3)c2)ccc1O` [Example 44, 3′-1{[(4-hydroxy-3-methoxyphenyl)methyl]carbamoyl}[1,1′-biphenyl]-3-yl 2-methylpropanoate], the “Residual rate (%)” value [1] was under 1% and the pEC50 [2] was 7.99.

For `COc1cc(CNC(=O)c2cccc(-c3cccc(OC(=O)CC4CCCCC4)c3)c2)ccc1O` [Example 45, 3′-{[(4-hydroxy-3-methoxyphenyl)methyl]carbamoyl}[1,1′-biphenyl]-3-yl cyclohexylacetate], the “Residual rate (%)” value [1] was under 1% and the pEC50 [2] was 7.50.

For `COc1cc(CNC(=O)c2ccnc(-c3cccc(OC(=O)C(C)C)c3)c2)ccc1O` [Example 46, 3-(4-{[(4-hydroxy-3-methoxyphenyl)methyl]carbamoyl}pyridin-2-yl)phenyl 2-methylpropanoate], the “Residual rate (%)” value [1] was under 1%, the pEC50 [2] was 8.37 and the “TRPV-1-agonistic activity (in words)” value [2] was “stronger TRPV-1-agonistic activity”.

In the case of `COc1cc(CNC(=O)c2cccc(-c3cccc(OC(=O)C(C)C)c3)n2)ccc1O` [Example 47, 3-(6-{[(4-hydroxy-3-methoxyphenyl)methyl]carbamoyl}pyridin-2-yl)phenyl 2-methylpropanoate], the “Residual rate (%)” value [1] was under 1% and the pEC50 [2] was 6.83.

With `COc1cc(CC(=O)Nc2ccnc(-c3cccc(OC(=O)C(C)C)c3)c2)ccc1O` [Example 49, 3-{4-[2-(4-Hydroxy-3-methoxyphenyl)acetamido]pyridin-2-yl}phenyl 2-methylpropanoate hydrochloride] the “number of swallows, Average, First time” value ([4]; 10 μM) was 12.3, the “number of swallows, Average, Second time” value ([4]; 10 μM) was 12.4 and the “number of swallows, Average, Third time” value ([4]; 10 μM) was 12.9. The “number of swallows, Average, Fourth time” value ([4]; 10 μM) was 11.3, the “number of swallows, Average, Fifth time” value ([4]; 10 μM) was 14.4 and the “number of swallows, Average, First time” value ([4]; 30 μM) was 17.1. For the same compound, the “number of swallows, Average, Second time” value ([4]; 30 μM) was 13.9, the “number of swallows, Average, Third time” value ([4]; 30 μM) was 14.1 and the “number of swallows, Average, Fourth time” value ([4]; 30 μM) was 12.4. For the same compound, the “number of swallows, Average, Fifth time” value ([4]; 30 μM) was 12.7, the “number of swallows at repeated administrations compared to the 1st administration (Dunnett's test)” value ([4]; five administrations about 5 minutes apart) was “no significant difference” and the “number of wiping behaviors versus control (Dunnett's test)” value [5] was “no significant difference”. The “number of swallowings compared to the solvent administered group (Dunnett's test)” value [6] was “significantly increased” and the “number of swallowings, Average” value ([6]; pharyngeal infusion 12 ml/h for 10 seconds, counted for 30 seconds) was 15.0*.
